Measurements published in patent US20150031714A1, “METHODS AND COMPOSITIONS FOR PREVENTION OF ALLERGIC REACTION” (Baylor College of Medicine, priority 2013, published 2015).

Experiments:
Stat1 (pY701) = test: Immunoblot assay of IFN-γ-mediated Stat1 phosphorylation in HepG2 cells; type: cell-based, human; conditions: 300 μM, 1 hour at 37° C.
Protocol: HepG2 cells were pretreated with DMSO alone or DMSO containing each of the compounds at a concentration of 300 μM for 60 min. Cells were then stimulated with IFN-γ (30 ng/ml) for 30 min. Protein extracts of cells were separated by SDS-PAGE and immunoblotted serially with antibodies to pStat1, total Stat1 and β-actin. Blots were stripped between each immunoblotting. The results shown are representative of 2 or more experiments.
Immunoblot assay. The human hepatocellular carcinoma cell line (HepG2) was grown in 6-well plates under standard conditions. Cells were pretreated with compounds (0, 1, 3, 10, 30, 100 and 300 uM) for 1 hour then stimulated under optimal conditions with either interferon gamma (IFN-γ; 30 ng/ml for 30 min) to activate Stat1 or interleukin-6 (IL-6; 30 ng/ml for 30 min) to activate Stat3 (30-31). Cultures were then harvested and proteins extracted using high-salt buffer, as described (Shao et al., 2006). Briefly, extracts were mixed with 2× sodium dodecyl sulfate (SDS) sample buffer (125 mmol/L Tris-HCL pH 6.8; 4% SDS; 20% glycerol; 10% 2-mercaptoethanol) at a 1:1 ratio and heated for 5 minutes at 100° C. Proteins (20 μg) were separated by 7.5% SDS-PAGE and transferred to polyvinylidene fluoride (PVDF) membrane (Millipore, Waltham, Mass.) and immunoblotted. Prestained molecular weight markers (Biorad, Hercules, Calif.) were included in each gel. Membranes were probed serially with antibody against Stat1 pY^701 or Stat3 pY^705 followed by antibody against Stat1 or Stat3 (Transduction labs, Lexington, Ky.) then antibody against β-actin (Abcam, Cambridge, Mass.). Membranes were stripped between antibody probing using Restore™ Western Blot Stripping Buffer (Thermo Fisher Scientific Inc., Waltham, Mass.) per the manufacturer's instructions. Horseradish peroxidase-conjugated goat-anti-mouse IgG was used as the secondary antibody (Invitrogen Carlsbad, Calif.) and the membranes were developed with enhanced chemiluminescence (ECL) detection system (Amersham Life Sciences Inc.; Arlington Heights, Ill.).
While Stat3 contributes to oncogenesis, in part, through inhibition of apoptosis, Stat1 is anti-oncogenic; it mediates the apoptotic effects of interferons and contributes to tumor surveillance (Kaplan et al., 1998; Ramana et al., 2000). Consequently, compounds that target Stat3 while sparing Stat1, leaving its anti-oncogenic functions unopposed, may result in a synergistic anti-tumor effect. […] Thus, five of the six exemplary compounds identified were selective and inhibited ligand-stimulated phosphorylation of Stat3 but not Stat1.
EXP IIC. Ligand-mediated pStat3 and pStat1 inhibition assays. […] Briefly, human hepatocellular carcinoma cells (HepG2) are grown in 6-well plates and pretreated with compounds (0, 0.1, 0.3, 1, 3, 10, 30, 100 μM) for 1 hour then stimulated under optimal conditions with either interleukin-6 (IL-6; 30 ng/ml for 30 min) to activate Stat3 or interferon gamma (IFN-γ; 30 ng/ml for 30 min) to activate Stat1. Cells are harvested and proteins extracted using high-salt buffer, mixed with 2× sodium dodecyl sulfate (SDS) sample buffer (125 mmol/L Tris-HCL pH 6.8; 4% SDS; 20% glycerol; 10%2-mercaptoethanol) at a 1:1 ratio then heated for 5 minutes at 100° C. Proteins (20 μg) are separated by 7.5% SDS-PAGE and transferred to polyvinylidene fluoride (PVDF) membrane (Millipore, Waltham, Mass.) and immunoblotted. Membranes are probed serially with antibody against Stat1 pY701 or Stat3 pY705 followed by antibody against Stat1 or Stat3 (Transduction labs, Lexington, Ky.) then antibody against β-actin (Abcam, Cambridge, Mass.). Membranes are stripped between antibody probings using Restore™ Western Blot Stripping Buffer (Thermo Fisher Scientific Inc., Waltham, Mass.) per the manufacturer's instructions. […]

Stat3 (pY705) = test: Immunoblot assay of IL-6-mediated phosphorylation of Stat3 in HepG2 cells; type: cell-based; conditions: Homo sapiens; Table 4; HepG2, compound 60 min, IL-6 30 ng/ml 30 min; read-out: pStat3 IC50
Protocol: Cells were then stimulated with IL-6 (30 ng/ml) for 30 min. Protein extracts of cells were separated by SDS-PAGE, blotted and developed serially with antibodies to pStat3, total Stat3 and β-actin. Blots were stripped between each antibody probing. The bands intensities of immunoblot were quantified by densitometry. The value of each pStat3 band's intensity was divided by each corresponding value of total Stat3 band intensity and the results normalized to the DMSO-treated control value and plotted as a function of the log compound concentration. The best-fit curves were generated based on 4 Parameter Logistic Model/Dose Response One Site/XLfit 4.2, IDBS. Each panel is representative of 3 or more experiments.
Immunoblot assay. The human hepatocellular carcinoma cell line (HepG2) was grown in 6-well plates under standard conditions. Cells were pretreated with compounds (0, 1, 3, 10, 30, 100 and 300 uM) for 1 hour then stimulated under optimal conditions with either interferon gamma (IFN-γ; 30 ng/ml for 30 min) to activate Stat1 or interleukin-6 (IL-6; 30 ng/ml for 30 min) to activate Stat3 (30-31). Cultures were then harvested and proteins extracted using high-salt buffer, as described (Shao et al., 2006). […]
EXP IIC. […] Band intensities are quantified by densitometry. […]

| SMILES | Stat1 phosphorylation after IFN-γ stimulation (Stat1 (pY701)) | IC50 (Stat3 (pY705)) [µM] |
| --- | --- | --- |
| O=C(O)c1ccc(C=CC(=O)c2ccc3c(c2)OCCO3)cc1 [Cpd3, 4-[3-(2,3-dihydro-1,4-benzodioxin-6-yl)-3-oxo-1-propen-1-yl]benzoic acid] | did not | 91 |
| CCOc1cc(C=C2C(=O)c3ccccc3C2=O)cc(Cl)c1OCc1cccc(C(=O)O)c1 [Cpd3-2, 3-({2-chloro-4-[(1,3-dioxo-1,3-dihydro-2H-inden-2-ylidene)methyl]-6-ethoxyphenoxy}methyl)benzoic acid] | did not | 144 |
